Laboratory results published in ChEMBL document CHEMBL1201862, “PubChem BioAssay data set” (2004).
The source made the active and inactive calls.

Key:
[1] = viability loss in THP-1 monocytes – THP-1 cells, cytotoxicity control for Vif-APOBEC3G degradation inhibitor project, dose response (AID 1117359); assay type: functional; settings: THP-1
[2] = viability of uninfected HEp-2 cells – cell-based, HTS, cytotoxicity control for RSV inhibitor project, dose response (AID 2410); assay type: functional; settings: human respiratory syncytial virus
[3] = target: T1, Methionyl-tRNA synthetase, putative (Trypanosoma brucei brucei, UniProt Q38C91); assay type: functional, Trypanosoma brucei brucei strain 927/4 GUTat10.1
T1 sequence (Q38C91 whole entry): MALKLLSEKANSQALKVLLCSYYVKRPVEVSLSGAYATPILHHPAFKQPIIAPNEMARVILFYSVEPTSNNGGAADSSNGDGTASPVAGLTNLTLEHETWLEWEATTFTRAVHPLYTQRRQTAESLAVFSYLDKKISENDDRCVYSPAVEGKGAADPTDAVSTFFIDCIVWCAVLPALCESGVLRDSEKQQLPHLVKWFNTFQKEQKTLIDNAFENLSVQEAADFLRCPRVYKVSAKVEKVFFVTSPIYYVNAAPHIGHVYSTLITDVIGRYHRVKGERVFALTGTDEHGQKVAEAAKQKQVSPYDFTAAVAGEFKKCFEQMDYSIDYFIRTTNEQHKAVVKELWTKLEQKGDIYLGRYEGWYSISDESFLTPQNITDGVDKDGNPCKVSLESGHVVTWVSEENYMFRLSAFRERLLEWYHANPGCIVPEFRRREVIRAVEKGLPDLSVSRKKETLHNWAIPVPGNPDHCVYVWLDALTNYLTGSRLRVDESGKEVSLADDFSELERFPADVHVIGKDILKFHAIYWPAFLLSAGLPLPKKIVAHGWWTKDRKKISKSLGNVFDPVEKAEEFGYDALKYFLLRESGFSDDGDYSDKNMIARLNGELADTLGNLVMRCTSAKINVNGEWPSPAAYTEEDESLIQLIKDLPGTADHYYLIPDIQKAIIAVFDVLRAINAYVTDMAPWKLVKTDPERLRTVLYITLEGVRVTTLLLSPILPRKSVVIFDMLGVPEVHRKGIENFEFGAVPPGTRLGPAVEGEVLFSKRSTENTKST

[4] = Counterscreen for inhibitors of Trypanosoma brucei methionyl tRNA synthetase (MetRS): Luminescence-based cell-based high throughput dose response assay to identify compounds that are cytotoxic to Jurkat human T lymphocyte cells.; assay type: functional
[5] = target: T1, Methionyl-tRNA synthetase, putative; assay type: functional, Trypanosoma brucei brucei strain 927/4 GUTat10.1; remark: listed apart in the source
Streptokinase A = target: T2, Streptokinase A (Streptococcus pyogenes serotype M1, UniProt P10520); assay: viability-normalized secreted streptokinase activity reduction – plasminogen activation absorbance, OD405, dose response (AID 1914); assay type: functional, Streptococcus pyogenes M1 GAS;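 note: secreted streptokinase activity via plasminogen activation per viability signal from cell pellet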
T2 sequence (P10520 whole entry): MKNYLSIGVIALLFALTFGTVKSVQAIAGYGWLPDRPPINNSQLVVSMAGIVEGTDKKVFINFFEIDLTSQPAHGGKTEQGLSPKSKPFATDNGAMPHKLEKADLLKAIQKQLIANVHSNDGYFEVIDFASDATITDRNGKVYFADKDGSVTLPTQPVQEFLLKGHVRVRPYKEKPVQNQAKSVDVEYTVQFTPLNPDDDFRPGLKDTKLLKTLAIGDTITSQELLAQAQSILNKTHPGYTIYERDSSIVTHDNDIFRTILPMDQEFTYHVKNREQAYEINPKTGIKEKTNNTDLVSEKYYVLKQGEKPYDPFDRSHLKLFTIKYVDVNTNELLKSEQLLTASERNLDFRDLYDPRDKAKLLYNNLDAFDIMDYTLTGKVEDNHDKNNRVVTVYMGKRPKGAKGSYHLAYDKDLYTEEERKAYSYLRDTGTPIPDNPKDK

[6] = target: T3, Calpain-2 catalytic subunit (Sus scrofa, UniProt P43367); assay: m-calpain protease blockers, concentration series – biochemical, fluorogenic peptide substrate, dose response (AID 1420); assay type: functional
T3 sequence (P43367 whole entry): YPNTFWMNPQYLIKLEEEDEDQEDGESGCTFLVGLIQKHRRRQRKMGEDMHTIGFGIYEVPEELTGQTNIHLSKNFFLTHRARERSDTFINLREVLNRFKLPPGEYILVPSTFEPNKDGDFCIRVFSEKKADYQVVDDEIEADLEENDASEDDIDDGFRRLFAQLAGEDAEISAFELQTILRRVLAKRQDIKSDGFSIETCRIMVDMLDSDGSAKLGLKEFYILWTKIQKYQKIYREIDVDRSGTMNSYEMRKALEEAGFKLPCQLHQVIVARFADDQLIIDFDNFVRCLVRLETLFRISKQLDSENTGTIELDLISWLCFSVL

Mu-type opioid receptor = Mu-type opioid receptor (Homo sapiens, UniProt P35372); assay type: functional, cell-based;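 note: U2OS cells with beta-arrestin recruitment to OPRM1 by beta-gal complementation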
Chain of Mu-type opioid receptor (P35372 whole entry): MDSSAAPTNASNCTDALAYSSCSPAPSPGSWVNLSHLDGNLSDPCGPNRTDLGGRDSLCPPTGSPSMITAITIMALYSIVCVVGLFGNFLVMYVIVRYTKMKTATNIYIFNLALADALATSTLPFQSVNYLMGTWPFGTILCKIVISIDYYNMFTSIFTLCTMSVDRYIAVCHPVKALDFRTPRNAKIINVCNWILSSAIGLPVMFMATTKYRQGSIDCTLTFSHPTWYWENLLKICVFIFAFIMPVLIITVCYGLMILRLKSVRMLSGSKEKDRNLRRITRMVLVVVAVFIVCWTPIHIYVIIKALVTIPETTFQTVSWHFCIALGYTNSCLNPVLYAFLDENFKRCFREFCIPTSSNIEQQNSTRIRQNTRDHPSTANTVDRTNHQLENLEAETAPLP

[7] = target: 5-hydroxytryptamine receptor 2A (Mus musculus, UniProt P35363); assay type: functional, cell-based;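 note: CHO-K1 cells with tagged receptor and beta-arrestin; agonist potency measured as compound-induced activation of the receptor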
Chain of 5-hydroxytryptamine receptor 2A (P35363 whole entry): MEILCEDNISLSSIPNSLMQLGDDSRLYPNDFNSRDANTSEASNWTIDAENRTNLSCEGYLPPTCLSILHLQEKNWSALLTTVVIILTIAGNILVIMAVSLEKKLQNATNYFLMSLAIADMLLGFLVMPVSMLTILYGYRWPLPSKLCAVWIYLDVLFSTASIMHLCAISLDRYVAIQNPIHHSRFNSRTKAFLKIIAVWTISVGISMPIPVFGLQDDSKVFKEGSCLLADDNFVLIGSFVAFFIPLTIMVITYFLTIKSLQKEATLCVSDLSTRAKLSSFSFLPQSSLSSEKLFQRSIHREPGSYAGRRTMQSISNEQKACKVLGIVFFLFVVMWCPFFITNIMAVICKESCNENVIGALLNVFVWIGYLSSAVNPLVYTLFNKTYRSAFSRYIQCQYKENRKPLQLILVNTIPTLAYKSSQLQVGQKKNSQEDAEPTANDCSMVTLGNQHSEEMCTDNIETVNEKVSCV

[8] = target: Luciferin 4-monooxygenase (Photinus pyralis, UniProt P08659); assay: inhibition of purified Photinus pyralis luciferase – biochemical, luminescence, dose response (AID 1891)
Chain of Luciferin 4-monooxygenase (P08659 whole entry): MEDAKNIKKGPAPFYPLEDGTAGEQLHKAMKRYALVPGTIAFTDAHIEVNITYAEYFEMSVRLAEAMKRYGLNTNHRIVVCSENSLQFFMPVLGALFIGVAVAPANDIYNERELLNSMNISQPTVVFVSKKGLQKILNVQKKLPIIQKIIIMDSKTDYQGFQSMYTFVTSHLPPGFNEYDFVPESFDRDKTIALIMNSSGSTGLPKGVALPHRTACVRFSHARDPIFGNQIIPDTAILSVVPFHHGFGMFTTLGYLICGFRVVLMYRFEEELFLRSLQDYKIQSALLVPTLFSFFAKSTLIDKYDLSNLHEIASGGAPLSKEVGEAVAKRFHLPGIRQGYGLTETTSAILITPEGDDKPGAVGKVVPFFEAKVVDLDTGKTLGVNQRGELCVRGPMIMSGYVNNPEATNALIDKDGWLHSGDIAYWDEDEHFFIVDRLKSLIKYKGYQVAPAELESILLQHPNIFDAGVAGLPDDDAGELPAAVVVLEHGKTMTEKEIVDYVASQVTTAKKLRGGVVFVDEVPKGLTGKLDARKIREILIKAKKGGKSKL

[9] = Luminescence Cell-Based Dose Confirmation HTS to Identify Inhibitors of Platelet Dense Granule Release. [Related pubchem assays: 1663 (Primary HTS), 1678 (Summary of Project)]; assay type: functional
[10] = target: T4, Microphthalmia-associated transcription factor (Homo sapiens, UniProt O75030); assay: reducers of TRPM1 reporter luminescence, concentration series – cell-based, SK-MEL-5, cherry-picked, set 3, MITF inhibitor project, dose response (AID 493073); assay type: functional;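 note: SK-MEL-5 melanoma cells with luciferase driven by the MITF target TRPM1 promoter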
T4 sequence (O75030 whole entry): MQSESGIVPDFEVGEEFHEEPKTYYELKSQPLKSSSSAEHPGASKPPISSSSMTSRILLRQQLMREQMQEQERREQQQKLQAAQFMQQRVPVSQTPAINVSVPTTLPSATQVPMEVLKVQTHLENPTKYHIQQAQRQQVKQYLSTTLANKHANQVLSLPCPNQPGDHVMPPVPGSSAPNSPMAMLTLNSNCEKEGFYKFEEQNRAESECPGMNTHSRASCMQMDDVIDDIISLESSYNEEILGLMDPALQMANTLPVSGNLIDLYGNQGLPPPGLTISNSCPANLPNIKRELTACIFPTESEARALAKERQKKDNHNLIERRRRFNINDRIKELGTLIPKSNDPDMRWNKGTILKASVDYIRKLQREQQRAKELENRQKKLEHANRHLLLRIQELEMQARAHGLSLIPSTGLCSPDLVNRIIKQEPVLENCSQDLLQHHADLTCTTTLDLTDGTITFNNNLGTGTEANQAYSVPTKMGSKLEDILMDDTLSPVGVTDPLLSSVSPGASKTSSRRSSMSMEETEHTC

[11] = blockers of HIV-1 envelope-mediated cell-cell fusion – cherry-pick, dose response (AID 652057); assay type: functional, cell-based
[12] = viability loss in CEM21 cells – cell-based, CellTiter-Glo luminescence, cherry-picked, cytotoxicity control for viral fusion inhibitor project, dose response (AID 652042); assay type: functional;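 note: potency for signal decrease meaning cytotoxicity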
[13] = blockers of HIV-1 ZM109 envelope-driven cell-cell fusion – HeLa effector, CEM target cells, luciferase, cherry-pick, dose response (AID 652058); assay type: functional, cell-based;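 note: luciferase signal from HIV-1 Env mediated cell-cell fusion of effector and target cells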
Paired box protein Pax-8 = Paired box protein Pax-8 (Homo sapiens, UniProt Q06710); assay: PAX8 transcriptional activity inhibition in RMG-I – RMG-I cells, luciferase, cherry-pick, dose response (AID 687027); assay type: functional, cell-based;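 note: luciferase reporter driven by Pax8 target thyroperoxidase promoter measured by SteadyGlo luminescence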
Chain of Paired box protein Pax-8 (Q06710 whole entry, the tested form may be a part): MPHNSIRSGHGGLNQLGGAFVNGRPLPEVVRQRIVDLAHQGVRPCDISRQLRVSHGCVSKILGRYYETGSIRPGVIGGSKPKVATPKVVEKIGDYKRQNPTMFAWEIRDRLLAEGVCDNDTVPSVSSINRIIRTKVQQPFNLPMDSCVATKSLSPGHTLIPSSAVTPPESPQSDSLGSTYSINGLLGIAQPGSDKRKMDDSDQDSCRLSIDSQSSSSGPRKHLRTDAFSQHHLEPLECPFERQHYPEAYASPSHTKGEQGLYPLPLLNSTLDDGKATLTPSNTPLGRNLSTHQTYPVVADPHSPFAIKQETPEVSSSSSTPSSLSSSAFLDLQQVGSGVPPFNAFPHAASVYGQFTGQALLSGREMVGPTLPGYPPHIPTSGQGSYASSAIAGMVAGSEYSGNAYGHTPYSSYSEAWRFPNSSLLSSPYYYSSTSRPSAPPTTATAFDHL

[14] = off-target signal loss in HeLa-CEM21 co-culture – HeLa F-luc CTL cells, cherry-picked, counter-screen for HIV-1 Env fusion inhibitor project, dose response (AID 652040); assay type: functional, cell-based;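 note: potency for signal decrease marking cytotoxic or nonspecific inhibition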
[15] = HIV-1 AD8 envelope cell-cell fusion blockers – cherry-pick, dose response (AID 652062); assay type: functional, cell-based;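 note: luciferase signal from cell-cell fusion driven by HIV-1 clade B AD8 Env; potency is for inhibitors of fusion seen as a drop in luminescence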
[16] = general cell-killing toxicity readout – plate reader, dry powder samples, cytotoxicity control for PAX8 inhibitor project, dose response (AID 743021); assay type: functional, cell-based
[17] = A549 cell cytotoxicity, dose response, cytotoxicity control, plate reader, cherry-pick, antagonist series (AID 743412); assay type: functional, cell-based
[18] = toxicity toward HepG2 liver cells – cell-based, plate reader, cherry-pick, antagonist series, cytotoxicity control, dose response (AID 743416); assay type: functional
[19] = blockers of bursicon-stimulated LGR2 cAMP reporter – cell-based, HEK293, CRE-luciferase reporter, cherry pick, set 2, dose response (AID 743343); assay type: functional;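 note: transfected cells were stimulated with diluted bursicon conditioned medium after compound addition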
[20] = blockade of melanocortin 4 receptor signaling – cell-based, plate reader, cherry pick, counter-screen for LGR2 antagonist project, dose response (AID 743444); assay type: functional;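 note: transfected HEK 293 cells stimulated with alpha-MSH peptide; potency of inhibitors of the alpha-MSH evoked signal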
[21] = viability loss in HEK293 cells – cell-based, plate reader, cherry-picked samples, cytotoxicity control, dose response (AID 743446); assay type: functional

In the case of `COc1ccc(Cc2nnc(NC(=O)CSc3ccccc3)s2)cc1`, the CC50 [1] is reported as > 40 µM (active).
In the case of `O=C(Nc1ccc(C(=O)O)cc1)/C(=C\C=C\c1ccccc1)NC(=O)c1cccc(Br)c1`, the CC50 [2] is reported as 33.7 µM (active), the IC50 [3] is reported as 60.7 µM (inactive) and the IC50 [4] is reported as 83.3 µM (inactive). The IC50 [5] was 45.6 µM (inactive).
With `CC(CNC(=S)Nc1cc(F)cc(F)c1)CSc1ccc(Cl)cc1` (stereo unspecified) the EC50 (Streptokinase A) was 30 µM (active), the IC50 [6] was 13.5 µM (not active) and the IC50 [3] was 15.4 µM (inactive). The IC50 [5] was 23.9 µM (inactive).
For `Fc1ccccc1CN1CCN(c2ncccn2)CC1`, the EC50 (Mu-type opioid receptor) was 92.5 µM (inactive) and the EC50 [7] was 1.26 µM (active).
With `O=C(O)c1ccc(N/N=C/c2ccc3nccnc3c2)cc1` the EC50 [8] was 3.43 µM (active), the EC50 [9] was 7.25 µM (active) and the AC50 [10] was 0.696 µM (active). For the same molecule, the AC50 [11] was 0.685 µM (active), the AC50 [12] was 46.5 µM (active) and the AC50 [13] was 6.51 µM (active). For the same molecule, the AC50 (Paired box protein Pax-8) was 2.07 µM (active), the AC50 [14] was 2.97 µM (active) and the AC50 [15] was 2.13 µM (active). For the same molecule, the AC50 [16] was 30.5 µM (active).
For `O=c1c(Cc2ccc(Cl)cc2Cl)c(O)ccn1Cc1ccncc1`, the IC50 [3] was 29.2 µM (inactive), the IC50 [4] was 83.2 µM (inactive) and the IC50 [5] was 20 µM (inactive).
For `COc1ccccc1-c1ccc(OCCCN2CCC(C(O)(c3ccccc3)c3ccccc3)CC2)cc1`, the AC50 (Paired box protein Pax-8) was 10.2 µM (active), the AC50 [17] was 5.11 µM (active) and the AC50 [18] was 6.44 µM (active). For the same molecule, the AC50 [19] was 16.3 µM (active), the AC50 [16] was 28.1 µM (active) and the AC50 [20] was 18.1 µM (active). The AC50 [21] was 9.63 µM (active).
